How the values were obtained:
[1] = molecular target: T1, recombinant human 17β-HSD1 (Homo sapiens, UniProt P14061); assay: Inhibition of recombinant human 17β-HSD1 (HPLC assay, conversion of 3H-estrone to estradiol); assay type: biochemical; settings: 30 nM 3H-estrone, 1 mM NADPH, 30 min at RT; for inhibition at 0.1 µM / inhibition at 1 µM: 0.5 h, read-out: inhibition of rec. 17β-HSD1
T1 construct: made in house; host or cells: Sf9 insect cells (baculovirus, Bac to Bac Expression System)
T1 sequence (P14061 1-328): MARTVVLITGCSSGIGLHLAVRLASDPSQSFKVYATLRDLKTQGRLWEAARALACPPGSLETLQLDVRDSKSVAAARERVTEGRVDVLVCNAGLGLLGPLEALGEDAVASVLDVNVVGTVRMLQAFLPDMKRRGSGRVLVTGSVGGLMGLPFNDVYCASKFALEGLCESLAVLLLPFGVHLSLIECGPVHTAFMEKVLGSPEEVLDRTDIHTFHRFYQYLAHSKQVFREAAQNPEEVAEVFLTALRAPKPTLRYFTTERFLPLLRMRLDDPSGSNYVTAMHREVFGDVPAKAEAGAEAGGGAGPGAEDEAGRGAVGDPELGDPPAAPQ
Experimental: Inhibition of the 17β-hydroxysteroid dehydrogenase type 1 enzyme 17β-HSD1 purification: Recombinant baculovirus was generated by the "Bac to Bac Expression System" (Invitrogen). Recombinant bacmid was transfected to Sf9 insect cells using "Cellfectin Reagent" (Invitrogen). 60h later cells were harvested; the microsomal fraction was isolated as described by Puranen et al. (1994). Aliquots were stored frozen until determination of enzymatic activity.
Assay - Inhibition of recombinant human 17β-HSD1: Recombinant protein (0.1 µg/ml) was incubated in 20 mM KH2PO4 pH 7.4 with 30 nM 3H-estrone and 1 mM NADPH for 30 min at RT, in the presence of potential inhibitors at concentrations of 1 µM or 0.1 µM. Inhibitor stock solutions were prepared in DMSO. Final concentration of DMSO was adjusted to 1 % in all samples. The enzyme reaction was stopped by addition of 10 % trichloroacetic acid (final concentration). Samples were centrifuged in a microtiter plate at 4000 rpm for 10 min. Supernatants were applied to reverse phase HPLC on a Waters Symmetry C18 column, equipped with a Waters Sentry Guard column. Isocratic HPLC runs were performed at RT at a flow rate of 1 ml/min of acetonitrile:water 48:52 as running solvent. Radioactivity was monitored in the eluate by a Packard Flow Scintillation Analyzer. Total radioactivity for estrone and estradiol were determined in each sample and percent conversion of estrone to estradiol was calculated according to the following formula: [formula] [formula]
The values "% inhibition" were determined for exemplified compounds, and the results are summarized in table 4 (for 17β-HSD1). table 4: HSD 1 inhibition values in % of selected compounds of formula I

17β-HSD3 = molecular target: T2, 17β-HSD3 (Homo sapiens, UniProt P37058); assay: Inhibition of 17β-HSD3 in MCF-7 cell lines stably expressing the enzyme (HPLC, tritium labeled androstenedione); assay type: cell-based; settings: MCF7, MCF-7 cells expressing 17β-HSD3, androstenedione 2 nM
T2 construct: expressed in transfected cells; host or cells: MCF-7 cells stably expressing 17β-HSD3
T2 sequence (P37058 1-310): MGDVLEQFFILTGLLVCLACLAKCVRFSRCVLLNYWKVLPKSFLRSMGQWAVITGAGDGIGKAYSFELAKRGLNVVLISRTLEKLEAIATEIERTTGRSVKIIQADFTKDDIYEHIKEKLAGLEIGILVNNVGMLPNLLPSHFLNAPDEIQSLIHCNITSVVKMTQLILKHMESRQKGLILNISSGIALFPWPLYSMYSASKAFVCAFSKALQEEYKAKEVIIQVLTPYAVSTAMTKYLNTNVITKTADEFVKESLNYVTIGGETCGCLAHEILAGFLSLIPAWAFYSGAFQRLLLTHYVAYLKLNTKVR
Experimental: The compounds were screened in respect of 17β-HSD3 enzyme activity in vitro on established MCF-7 cell lines, each stably expressing the 17β-HSD3 enzyme. The interconversion of substrate by 17β-HSD3 and the 17β-HSD3 inhibiting activity of chemical compounds in these cell lines were detected by HPLC system.
Varying amounts of the test compounds were incubated in the growth medium of the 17β-HSD3 expressing cells together tritium labeled androstenedione (2 nM). The medium samples were removed after exact incubation time and the reaction is stopped by trichloroacetic acid (TCA). The samples were analyzed by HPLC-coupled flow scintillation analysis.
Conversion: The 17β-HSD3 inhibiting activity of an individual test compound was calculated by comparing the conversion of a control sample without any test compound (referred to as "Negative Control") to the (reduced) conversion of the test sample containing the particular compound to be tested (referred to as "Test Sample"). [formula]
Two concentrations of each compound were used. The number of the compound refers to the numbers indicated in the Experimental Section.
The values "% inhibition" were determined for exemplified compounds, and the results are summarized in table 5 (HSD 3). table 5: 17β-HSD3 inhibition values in % of selected compounds of formula I

Compound	inhibition at 0.1 µM ([1]; 100 nM inhibitor)	inhibition at 1 µM ([1]; 1 µM inhibitor)	inhibition at 1 µM (17β-HSD3)	inhibition at 10 µM (17β-HSD3)	inhibition of rec. 17β-HSD1 ([1]; 100 nM inhibitor)	inhibition of rec. 17β-HSD1 ([1]; 1 µM inhibitor)
CC(C)Cc1cn(CCC[C@H]2CC(=O)[C@@]3(C)CC[C@@H]4c5ccc(O)cc5CC[C@H]4[C@H]23)nn1 [Compound 31, 3-Hydroxy-15-[3-(4-isobutyl-[1,2,3]triazol-1-yl)-propyl]-13-methyl-6,7,8,9,11,12,13,14,15,16-decahydro-cyclopenta[a]phenanthren-17-one]	32%	82%	–	–	–	–
C[C@]12CC[C@@H]3c4ccc(O)cc4CC[C@H]3[C@@H]1[C@H](CCCn1cc(-c3ccc(F)cc3F)nn1)CC2=O [Compound 28, 3-Hydroxy-15β-{3-[4-(2,4-difluoro-phenyl)-[1,2,3]triazol-1-yl]-propyl}-estra-1,3,5(10)-trien-17-one]	40%	83%	–	–	–	–
C[C@]12CC[C@@H]3c4ccc(O)cc4CC[C@H]3[C@@H]1[C@H](CCn1cc(-c3ccccc3F)nn1)CC2=O [Compound 7, 3-Hydroxy-15β-{2-[4-(2-fluoro-phenyl)-[1,2,3]triazol-1-yl]-ethyl}-estra-1,3,5(10)-trien-17-one]	81%	94%	12%	36%	–	–
C[C@]12CC[C@@H]3c4ccc(O)cc4CC[C@H]3[C@@H]1[C@H](CCCn1cc(-c3ccc(OC(F)(F)F)cc3)nn1)CC2=O [Compound 32, 3-Hydroxy-15β-{3-[4-(4-trifluoromethoxy-phenyl)-[1,2,3]triazol-1-yl]-propyl}-estra-1,3,5(10)-trien-17-one]	67%	81%	–	–	–	–
C[C@]12CC[C@@H]3c4ccc(O)cc4CC[C@H]3[C@@H]1[C@H](CCn1cc(-c3ccc(F)cc3F)nn1)CC2=O [Compound 3, 3-Hydroxy-15β-{2-[4-(2,4-difluoro-phenyl)-[1,2,3]triazol-1-yl]-ethyl}-estra-1,3,5(10)-trien-17-one]	86%	96%	–	–	–	–
C[C@]12CC[C@@H]3c4ccc(O)cc4CC[C@H]3[C@@H]1[C@H](CCn1cc(CC3CCCCC3)nn1)CC2=O [Compound 6, 3-Hydroxy-15β-[2-(4-cyclohexylmethyl-[1,2,3]triazol-1-yl)-ethyl]-estra-1,3,5(10)-trien-17-one]	92%	94%	16%	50%	–	–
CC(C)Cc1cn(CC[C@@H]2CC(=O)[C@@]3(C)CC[C@@H]4c5ccc(O)cc5CC[C@H]4[C@H]23)nn1 [Compound 12, 3-Hydroxy-15β-[2-(4-iso-butyl-[1,2,3]triazol-1-yl)-ethyl]-estra-1,3,5(10)-trien-17-one]	86%	92%	–	37%	–	–
C[C@]12CC[C@@H]3c4ccc(O)cc4CC[C@H]3[C@@H]1[C@@H](CCCn1cc(-c3cccc(O)c3)nn1)CC2=O [Compound 22, 3-Hydroxy-15-[3-(4-m-hydroxyphenyl-[1,2,3]triazol-1-yl)-propyl]-13-methyl-6,7,8,9,11,12,13,14,15,16-decahydro-cyclopenta[a]phenanthren-17-one]	48%	86%	82%	–	–	–
C[C@]12CC[C@@H]3c4ccc(O)cc4CC[C@H]3[C@@H]1[C@H](CCCn1cc(CC3CCCCC3)nn1)CC2=O [Compound 21, 3-Hydroxy-15β-[3-(4-cyclohexylmethyl-[1,2,3]triazol-1-yl)-propyl]-estra-1,3,5(10)-trien-17-one]	50%	86%	–	–	–	–
C[C@]12CC[C@@H]3c4ccc(O)cc4CC[C@H]3[C@@H]1[C@H](CCn1cc(-c3cccc(C(F)(F)F)c3)nn1)CC2=O [Compound 9, 3-Hydroxy-15β-{2-[4-(3-trifluoromethyl-phenyl)-[1,2,3]triazol-1-yl]-ethyl}-estra-1,3,5(10)-trien-17-one]	84%	93%	–	–	–	–
COC(=O)c1ccc(-c2cn(CCC[C@@H]3CC(=O)[C@@]4(C)CC[C@@H]5c6ccc(OC)cc6CC[C@H]5[C@H]34)nn2)cc1 [Compound 89, 4-{1-[3-(3-Methoxy-15β-17-oxo-estra-1,3,5(10)-trien-15-yl)-propyl]-1H-[1,2,3]triazol-4-yl}-benzoic acid methyl ester]	–	–	–	–	11%	52%
C[C@]12CC[C@@H]3c4ccc(O)cc4CC[C@H]3[C@@H]1[C@H](CCn1cc(CCc3ccccc3)nn1)CC2=O [Compound 1, 3-Hydroxy-15ß-[2-(4-phenethyl-[1,2,3]triazol-1-yl)-ethyl]-estra-1,3,5(10)-trien-17-one]	92%	98%	–	–	–	–
C[C@]12CC[C@@H]3c4ccc(O)cc4CC[C@H]3[C@@H]1[C@H](CCn1cc(-c3ccc(C(F)(F)F)cc3)nn1)CC2=O [Compound 10, 3-Hydroxy-15β-{2-[4-(4-trifluoromethyl-phenyl)-[1,2,3]triazol-1-yl]-ethyl}-estra-1,3,5(10)-trien-17-one]	83%	93%	–	–	–	–
C[C@]12CC[C@@H]3c4ccc(O)cc4CC[C@H]3[C@@H]1[C@H](CCn1cc(-c3cccc(O)c3)nn1)CC2=O [Compound 2, 3-Hydroxy-15β-{2-[4-(3-hydroxy-phenyl)-[1,2,3]triazol-1-yl]-ethyl}-estra-1,3,5(10)-trien-17-one]	88%	97%	–	–	–	–
CC(C)CCc1cn(CCC[C@H]2CC(=O)[C@@]3(C)CC[C@@H]4c5ccc(O)cc5CC[C@H]4[C@H]23)nn1 [Compound 30, 3-hydroxy-15-[3-(4-isopentyl-[1,2,3]triazol-1-yl)-propyl]-13-methyl-6,7,8,9,11,12,13,14,15,16-decahydro-cyclopenta[a]phenanthren-17-one]	25%	82%	–	–	–	–
COc1ccc(-c2cn(CC[C@@H]3CC(=O)[C@@]4(C)CC[C@@H]5c6ccc(O)cc6CC[C@H]5[C@H]34)nn2)cc1 [Compound 11, 3-Hydroxy-15β-{2-[4-(4-methoxy-phenyl)-[1,2,3]triazol-1-yl]-ethyl}-estra-1,3,5(10)-trien-17-one]	75%	93%	–	–	–	–
C[C@]12CC[C@@H]3c4ccc(O)cc4CC[C@H]3[C@@H]1[C@H](CCn1cc(-c3ccc(OC(F)(F)F)cc3)nn1)CC2=O [Compound 13, 3-Hydroxy-15β-{2-[4-(4-trifluoromethoxy-phenyl)-[1,2,3]triazol-1-yl]-ethyl}-estra-1,3,5(10)-trien-17-one]	83%	92%	–	–	–	–
C[C@]12CC[C@@H]3c4ccc(O)cc4CC[C@H]3[C@@H]1[C@H](CCCn1cc(-c3cc(F)cc(F)c3)nn1)CC2=O [Compound 18, 3-Hydroxy-15ß-{3-[4-(3,5-Difluoro-phenyl)-[1,2,3]triazol-1-yl]-propyl}-estra-1,3,5(10)-trien-17-one]	64%	88%	–	–	–	–

Source: patent EP2125859B1, “ESTRATRIENE DERIVATIVES AND THEIR USES AS 17BETA-HYDROXYSTEROID DEHYDROGENASE INHIBITORS” (Abbott Products GmbH, priority 2006, dated 2008)
